From patent publication US20230130103A1, “TARGETED PHARMACOLOGICAL THERAPEUTICS IN UVEAL MELANOMA” (Washington University, priority 2017, published 2023)
Starred links: 1 amine or outer side, 2 acyl side, 3 side chain; linkers in the order of their positions; H or OH if unused. Positions of bridges follow the written chain, without caps; N, C: chain ends. Non-standard residues stand in square brackets, D forms with d. Residues, ends and D or L forms follow the SMILES beside them. *: point of attachment. Leu(3R-OH,Nα-propionyl) = CCC(=O)N[C@H](C(=O)*)[C@H](O)C(C)C; X1 = CC(C)[C@@H](O[*:3])[C@H](N[*:1])C(=O)[*:2]; X2 = CC(C)[C@H](O[*:3])[C@@H](N[*:1])C(=O)[*:2]; NMeaThr = CN[C@H](C(=O)O)[C@H](C)O; dPhLac = O=C(O)[C@H](O)Cc1ccccc1; NMeA = CN[C@@H](C)C(=O)O; NMeDha = C=C(NC)C(=O)O

Tests used:
[1] = Retina structure (preliminary data)
Source text: In this example we will determine whether FR has potential to provide vision sparing therapy for primary (ocular) UM tumors. […] Based on our preliminary studies of UM cells in culture, intravitreal injection might be therapeutically beneficial by inhibiting tumor growth, promoting apoptosis, and/or pushing tumor re-differentiation toward melanocytic phenotypes less likely to metastasize. […] Our second priority is to determine whether FR administered systemically could provide therapeutic benefit for metastatic UM tumors.

92.1 cells [2] = assay: Melanocytic re-differentiation (morphology, pigmentation, immunostaining); type: cell-based, Human
Method: FIG. 5A Morphological changes elicited by FR. UM cell lines were treated 3 d with FR and imaged by phase contrast microscopy. FR caused UM cells driven by constitutively active Gαq (92.1 and Mel202) to lose their characteristic spindle shaped and assume a stellate shape with multiple projections. FR had no effect on BRAF-driven UM cells (OCM-1A). FIG. 5B Melanocytic differentiation of FR-treated UM cells indicated by pigmentation. UM cell lines were treated 3 d with FR. Cells were pelleted and examined macroscopically. […] Scale bar=50 μm.
Gαq-mutant 92.1 UM cells were treated with FR or vehicle, and RNA was collected 1 and 3 d after treatment for RNA-Seq analysis. FIG. 7A Unsupervised principal component analysis identified FR treatment and time in culture as the two main separable factors contributing to changes in gene expression. […] FIG. 7D FR-repressed genes identified as targets of the polycomb repressive complex 2 by Geneset enrichment analysis. FIG. 7E The Ezh1/2 inhibitor GSK503 blocks the morphological differentiation elicited by FR. 92.1 UM cells were treated 7 d with GSK503 and 3 d with FR and then imaged by phase contrast microscopy. […] 92.1 cells were treated 7 d with GSK503 and 3 d with FR and pelleted. FIG. 7G PRC2 inhibition by GSK503.
Cell fixation was carried out by adding an equal volume of 2×fixative (PBS with 4% paraformaldehyde and 0.4% glutaraldehyde) to UM cells in RPMI growth medium. After 15 min at 37° C., cells were permeabilized with 0.1% Triton X-100 in PBS for 5 min, washed with PBS, and blocked with 2% fish gelatin (Sigma-Aldrich) in PBS. Primary and secondary antibodies were diluted in 2% fish gelatin in PBS. Primary antibodies included mouse monoclonal anti-pre-melanosomal protein (One World Lab, San Diego, Calif.), rabbit polyclonal anti-tyrosinase (One World Lab), rabbit polyclonal anti-dopachrome tautomerase (One World Lab), rabbit polyclonal anti-S100 (DakoCytomation, Denmark), and mouse monoclonal anti-BrdU (Life Technologies). Secondary antibodies were Alexa-fluor conjugates (Life Technologies), and the mounting agent was ProLong Gold (Life Technologies). Cell morphology was assessed by phase contrast imaging with an inverted microscope (Olympus IX72) using a 10×objective.

92.1 cells [3] = assay: Flow cytometry of DNA content (proliferation and apoptosis); conditions: 3 d, FIG. 4C-D
Method: Cells were cultured at 37.0 in 5% CO2. […] Cell lines were grown in RPMI 1640 medium (Life Technologies, Carlsbad, Calif.) supplemented with 10% FBS and antibiotics. Cell viability was measured using a water-soluble tetrazolium salt, WTS-8 (Bimake, Houston, Tex.), following the manufacturer's protocol. Flow cytometry for analysis of cell proliferation and apoptosis was performed at the Siteman Cancer Center Flow Cytometry Core on a FACScan analyzer (BD Biosciences, San Diego Calif., USA) using a standard propidium iodide staining protocol as described previously (44).

OCM-1A cells = assay: YAP-driven transcriptional reporter; type: cell-based, Human; conditions: FIG. 6B
Method: Expression data from two experimental replicates are mean-centered; the color gradient corresponds to difference in log 2 ratio of expression from the mean, such that 0.5 versus −0.5 is a total difference of 2-fold in unlogged expression.
Assays of transcriptional reporters driven by YAP or Gα subunits were performed as described (42, 43). YAP- or Ga-driven firefly luciferase activity was normalized to Renilla luciferase expressed from a constitutive promoter.

C=C1C(=O)N[C@@H](C)C(=O)N(C)[C@@H](C)C(=O)N[C@H]([C@@H](OC(=O)[C@@H](NC(=O)CC)[C@H](O)C(C)C)C(C)C)C(=O)N(C)[C@@H]([C@H](C)OC)C(=O)O[C@H](C(C)C)[C@H](NC(C)=O)C(=O)O[C@H](Cc2ccccc2)C(=O)N1C [FR, [(1S)-1-[(3S,6R,9S,12S,18R,21S,22R)-21-acetamido-18-benzyl-3-[(1S)-1-methoxyethyl]-4,9,10,12,16-pentamethyl-15-methylidene-2,5,8,11,14,17,20-heptaoxo-22-propan-2-yl-1,19-dioxa-4,7,10,13,16-pentazacyclodocos-6-yl]-2-methylpropyl] (2S,3R)-3-hydroxy-4-methyl-2-(propanoylamino)pentanoate] (Ac-[X1][dPhLac][NMeDha]A[NMeA][X2](Leu(3R-OH,Nα-propionyl))[NMeaThr](Me); ester 1-C)
retina structure [1]: preserves retina structure | cell morphology (phase contrast) (92.1 cells [2]; 3 d FR, FIG. 5A): morphological changes indicative of re-differentiation | melanocytic pigmentation (92.1 cells [2]; 3 d FR, FIG. 5B): strikingly increased | expression levels of TYR, DCT and PMEL (immunofluorescence) (92.1 cells [2]; FIG. 5C): increased | apoptosis (sub-G1/G0 cells) (92.1 cells [3]): increased levels of sub-G1/G0 cells | cell cycle inhibition (decreased levels of S- and G2/M-phase cells) (92.1 cells [3]): induced cell cycle inhibition | effect on YAP-driven transcriptional reporter (OCM-1A cells): no effect
